In patent US10570177B2, “P3 peptidylic inhibitors for treating CAG-repeat RNA toxicity in polyglutamine diseases” (The Chinese University of Hong Kong, priority 2017, dated 2020):
Entries after “also recorded” stand apart in the source; their conditions may differ. Marks after values point to notes of the source that are not given here. Residues, ends and D or L forms follow the SMILES beside them. *: point of attachment. Palmitoyl = CCCCCCCCCCCCCCCC(=O)*

What was measured:
[1] = test system: EGFPCAG78 RNA-expressing HEK293 cells; assay type: cell-based
Description: HEK293 cells were cultured at 37° C. with 5% CO2 in DMEM supplemented with 10% FBS and 1% penicillin-streptomycin. Primary rat cortical neurons were isolated and cultured as previously described^37. Transient transfection of HEK293 cells was performed using Lipofectamine 2000 (Life Technologies). P3V8 were delivered to HEK293 cells using the DeliverX (DX) Peptide Transfection Kit (Affymetrix) 4 hr after DNA transfection. At least two batches of independently synthesized peptides were used in the experiments.
HEK 293 cells were seeded on a 24-well plate at a density of 0.5×10^5, and pEGFPCAG78 DNA construct was used to transfect the cells. For P3V8 treatment, different concentrations of P3V8 as indicated in the figure were transfected by DeliverX transfectant 4 hr after DNA transfection. […] Seventy-two hours after treatment, LDH enzyme activity in the cell culture medium was measured as described before. Experimental groups were normalized to the untransfected control. After normalization, data were analyzed using the dose response-inhibition curve (nonlinear regression-variable slope) to determine the IC50 value (Prism6 software, GraphPad Software, Inc.). Each experiment was repeated at least 3 times.

DsRedCAG100 flies = assay: Pseudopupil assay in DsRedCAG100 Drosophila (expanded CAG RNA neurodegeneration); assay type: in vivo; conditions: for suppression of neurotoxicity / retinal degeneration: DsRedCAG100 flies, in words
Description: Here the DsRedCAG0/100Drosophila model was utilized to investigate the suppressive effects of the P3 analogs on RNA toxicity. In this model, the CAG repeat is located in the 3′ untranslated region of the DsRed reporter gene-=. The transcribed expanded CAG RNA is not translated into polyQ protein, and thus the toxicity is solely attributed to the expression of DsRedCAG100 RNA. In brief, the expression of expanded CAG RNA causes severe retinal degeneration in the animal that can be quantified by a pseudopupil assay^7. Inhibitors that can suppress neurotoxicity will result in the recovery of the number of rhabdomeres within the ommatidium. To test the derivatives, third instar larvae were fed different amounts of peptide dissolved in sucrose solution for 2 hr and then allowed to culture in standard fly food until the flies were 12 days old, at which time they were sacrificed for the pseudopupil assay.
Flies were raised at 21.5° C. on cornmeal medium supplemented with dry yeast. Fly lines bearing UAS-DsRedCAG0 and UAS-DsRedCAG100 were kind gifts of Professor Nancy Bonini (University of Pennsylvania, USA). The gmr-GAL4 fly line was obtained from Bloomington Drosophila Stock Center. For pseudopupil assay, third instar larvae were fed with various amount of respective peptides dissolved in 2% sucrose solution for 2 hr and then continued to culture in standard fly food at 21.5° C.^38. Pseudopupil assay was performed on 12 day-old adult flies as mentioned previously^39. Images were captured by SPOT Insight CCD camera controlled by the SPOT Advanced software (Diagnostic instruments Inc.). Image processing was performed using the Adobe Photoshop CS software (Adobe). Each experiment was repeated at least 3 times (n=10 fly heads), and consistent results were obtained. For viability test of wild-type flies from egg to adult stage, eggs born within 5 hr were collected and cultured in fly food containing 10 or 50 μM of respective peptides at 21.5° C. Viability from egg-to-adult was calculated as the number of adult flies collected divided by the number of eggs examined. Each experiment was repeated for three times (at least 130 eggs were examined in each group). Two batches of independently synthesized peptides were used in the experiments.

[2] = In vitro stability in rat brain homogenate; assay type: in vitro ADME; conditions: 37° C.
Description: Sprague-Dawley (SD) rats (male, 180-200 g) were supplied by the Laboratory Animal Services Centre at The Chinese University of Hong Kong. All animal studies were conducted under the approval of the Animal Ethics Committee of The Chinese University of Hong Kong, and were performed in accordance with relevant guidelines and regulations. Blank rat brain homogenate was prepared by ultrasonic probe homogenization (Micoson XL-2000, Misonix, Framingdale, N.Y., USA) of brains collected from the control rats. Blank rat plasma was prepared by centrifugation (8000 rcf for 3.5 min) of blood collected from control rats. […] The mixtures were incubated at 37° C. with 100 rpm in a water bath for 1 or 3 hr. The incubation was terminated by addition twice the volume of acetonitrile and centrifugation at 13000 rcf for 10 min. The supernatant was collected for LC/MS/MS analysis.

[3] = test system: primary rat cortical neurons; assay: LDH cytotoxicity in primary rat cortical neurons; assay type: cell-based; conditions: 0.01 nM to 1 μM, 72 hr
Description: A density of 5×10^5 of primary rat cortical neurons were seeded on culture dish and individually cultured in medium containing 0.01, 0.1, 1, 5, 10, 50, 100, 250, 500, 750, and 1000 nM of P3V8 peptide (transfected with DeliverX). The lactate dehydrogenase (LDH) cytotoxicity activity was measured 72 hr post-treatment. Fold change of LDH activity was normalized to untreated cells. Data are expressed as mean±S.E.M. for 3 independent experiments. NS indicates no significance.
The LDH cytotoxicity activity was measured 72 hr posttreatment. Fold change of LDH activity was normalized to untreated cells. Data are expressed as mean±S.E.M. for 3 independent experiments. NS indicates no significance.
Because of the aim to develop P3V8 into a potent inhibitor that targets RNA toxicity in degenerating cells within the nervous system, it was assessed whether P3V8 had deleterious effects on neuronal cells by determining lactate dehydrogenase release in the culturing medium of rat cortical neurons.

pre-45s rRNA = assay: Real-time PCR of pre-45s rRNA level in EGFPCAG78 RNA-expressing HEK293 cells; assay type: cell-based, human; conditions: with DeliverX
Description: It was next investigated whether P3V8 could also mitigate expanded CAG RNA-induced toxicity in mammalian cells. […] To compare the inhibitory activity of P3WT and P3V8, the peptide transfection reagent DeliverX (DX) was used to deliver P3WT and P3V8 to EGFPCAG78 RNA-expressing HEK293 cells. […] To confirm that P3V8 inhibited expanded CAG RNA-mediated nucleolar stress, the levels of pre-45s rRNA were measured in EGFPCAG78 RNA-expressing cells with or without treatment of P3V8 (FIG. 3C). Overexpression of the expanded CAG RNA reduced the level of pre-45s rRNA to approximately 40% of the untransfected control.
RNA was extracted from cells or ten 12 day-old adult fly heads by Trizol reagent (Life Technologies), and 1 μg of purified RNA was then used for reverse-transcription using the ImPromII™ Reverse Transcription System (Promega). Random hexamer (Roche) was used as primers in reverse transcription. Taqman gene expression assays were performed on an ABI 7500 Real-time PCR system and data were analyzed as previously described^13. The following probes were used: pre-45s rRNA (Assay ID: AILJIZM), pre-rRNA (Assay ID: AIMSG5U), Drosophila GAPDH (Assay ID: Dm01841186) and human actin (Assay ID: Hs99999903_m1). Each experiment was repeated at least 3 times.

[4] = 1000 ng/mL, incubation for 1 hr
[5] = 2000 ng/mL, incubation for 1 hr, 60 min
[6] = 2000 ng/mL, incubation for 3 hr

For `CCCCCCCCCCCCCCCC(=O)N[C@@H](CC(=O)O)C(=O)NCC(=O)N[C@@H](CCCCN)C(=O)N[C@@H](CO)C(=O)N[C@@H](CCCCN)C(=O)NCC(=O)N[C@H](C(=O)N[C@@H](C)C(=O)N[C@@H](Cc1ccc(O)cc1)C(=O)N[C@H](C(=O)N[C@@H](CCC(=O)O)C(=O)N[C@@H](Cc1ccccc1)C(=O)N[C@@H](CCCCN)C(N)=O)[C@@H](C)CC)[C@@H](C)CC` [L1P3V8] (Palmitoyl-DGKSKGIAYIEFK-NH2), the IC50 ([1]; 72 hr, read-out: IC50 (inhibition of cell death, LDH)) was roughly 0.1 µM, the “suppression of neurotoxicity / retinal degeneration” value (DsRedCAG100 flies) was “suppressed retinal degeneration” and the Pecentage of remained ([2]; 500 ng/mL, incubation for 1 hr) was <20^# %. For the same compound, the Pecentage of remained ([2]; 500 ng/mL, incubation for 3 hr) was <20^# %, the Pecentage of remained [2, 4] was 22.8 ± 1.2 % and the Pecentage of remained ([2]; 1000 ng/mL, incubation for 3 hr) was 15.8 ± 0.7%. For the same compound, the Pecentage of remained [2, 5] was 45.0 ± 3.5 %, the Pecentage of remained [2, 6] was roughly 21.2% and the Pecentage of remained ([2]; 2000 ng/mL, incubation for 3 hr, 180 min) was 21.2 ± 3.0%. The remaining at 3 h, 2000 ng/mL ([2]; male, Sprague-Dawley, rat, tissue homogenate, 2000 ng/mL, incubation for 3 hr, read-out: Pecentage of remained) was roughly 21% and the “cytotoxicity (LDH release)” value [3] was “no cytotoxic effects; also recorded: no cytotoxicity”.

With Ac-DGKSKGIAYIEFK-NH2 [P3V8] the “effect on expanded CAG RNA-induced cytotoxicity” value [1] was “effectively alleviate the cytotoxicity”, the “effect on expanded CAG RNA-induced cell death” value ([1]; peptide alone, without DeliverX) was “did not exert any cellular effect” and the pseudopupil score (DsRedCAG100 flies; 1 μM treatment, 12 day-old flies) was 4.32±0.25. The “suppression of neurotoxicity / retinal degeneration” value (DsRedCAG100 flies) was “significantly suppressed neurotoxicity”, the Pecentage of remained [2, 4] was 4.0 ± 1.6% and the Pecentage of remained ([2]; 2000 ng/mL, incubation for 1 hr) was 3.3%. For the same compound, the Pecentage of remained [2, 5] was 3.3 ± 0.6%, the Pecentage of remained [2, 6] was “almost completely degraded” and the remaining at 1 h, 2000 ng/mL ([2]; male, Sprague-Dawley, rat, rat brain homogenate, 2000 ng/mL, incubation for 1 hr, read-out: Pecentage of remained) was 3%. The “pre-45s rRNA level” value (pre-45s rRNA) was “dose-dependent restoration”.
